Measured values taken from patent US20130011427A1 (priority 2009, published 2013).

Legend:
Type in all cases: cell-based, mouse
[1] = test system: HLA-DR4/huCD4 (DRB1*0401) Tg mice, CD8-depleted splenocytes
[2] = test system: HLA-DR3 (DRB1*0301) Tg mice, CD8-depleted splenocytes
[3] = test system: HLA-A2.1 (HLA-A*0201) Tg mice, CD4-depleted splenocytes
[4] = test system: HLA-DR2 (DRB1*1501) Tg mice, CD8-depleted splenocytes

Row | Sequence | T cell activation of HLA transgenic mice (SFC/10^6) IFN-γ ELISpot, DR4 [1] | T cell activation of HLA transgenic mice (SFC/10^6) IFN-γ ELISpot, DR3 [2] | T cell activation of HLA transgenic mice (SFC/10^6) IFN-γ ELISpot, A2 [3] | T cell activation of HLA transgenic mice (SFC/10^6) IFN-γ ELISpot, DR2 [4]
1 | AEVRSYCYLATVSDLSTK [E 54-71] | 205 ± 56 SFC/10^6 |  |  | 
2 | AHWTEARIMLDNINM [NS3 487-501] |  | 431 ± 112 SFC/10^6 | 308 ± 188 SFC/10^6 | 
3 | ALLTPGLRCLNLDVYRIL [NS2a 160-177] |  | 59 ± 3 SFC/10^6 | 63 ± 18 SFC/10^6 | 
4 | ARIMLDNINMPNGLIAQF [NS3 492-509] |  | 216 ± 42 SFC/10^6 |  | 
5 | CLNLDVYRILLLMVGI [NS2a 168-183] |  | 231 ± 16 SFC/10^6 |  | 556 ± 33 SFC/10^6
6 | CYGGHTNEDDSNFAHW [NS3 474-489] |  | 83 ± 23 SFC/10^6 | 92 ± 18 SFC/10^6 | 
7 | DRRWCFDGPRTNTIL [NS3 560-574] |  | 225 ± 10 SFC/10^6 |  | 
8 | DTGCAIDISRQELRCGSGV [NS1 1-19] |  | 572 ± 20 SFC/10^6 |  | 
9 | DTPSPKEYKKGDTTTGVY [NS3 6-23] | 43 ± 6 SFC/10^6 |  |  | 
10 | DYINTSLTSINVQASALF [NS4b 63-80] | 92 ± 13 SFC/10^6 | 386 ± 60 SFC/10^6 |  | 
11 | EGRVEIDFDYCPGTTVTL [NS1 270-287] | 54 ± 6 SFC/10^6 |  |  | 
12 | EKLQLKGTTYGVCSKAFK [E 293-310] | 47 ± 5 SFC/10^6 |  |  | 
13 | EQQINHHWHKSGSSIGKA [E 390-407] |  | 50 ± 6 SFC/10^6 |  | 
14 | EVITKLGERKILRPRWI [NS3 581-597] | 52 ± 11 SFC/10^6 |  |  | 
15 | FAESNSGGDVVHLALMA [NS2a 65-81] | 60 ± 13 SFC/10^6 |  |  | 
16 | FDGPRTNTILEDNNEVEV [NS3 565-582] |  | 59 ± 3 SFC/10^6 |  | 
17 | FRSLFGGMSWITQGLLGA [E 450-467] |  | 104 ± 21 SFC/10^6 | 205 ± 145 SFC/10^6 | 261 ± 13 SFC/10^6
18 | GAGVMVEGVFHTLWHTTK [NS3 37-54] |  | 368 ± 66 SFC/10^6 |  | 149 ± 13 SFC/10^6
19 | GCWGQVTLTVTVTAATLL [NS4b 101-118] | 134 ± 8 SFC/10^6 |  |  | 
20 | GKLITDWCCRSCTLPPLR [NS1 305-322] | 109 ± 22 SFC/10^6 | 557 ± 25 SFC/10^6 |  | 

Row | Sequence | T cell activation of HLA transgenic mice (SFC/10^6) IFN-γ ELISpot, DR4 [1] | T cell activation of HLA transgenic mice (SFC/10^6) IFN-γ ELISpot, DR3 [2] | T cell activation of HLA transgenic mice (SFC/10^6) IFN-γ ELISpot, A2 [3] | T cell activation of HLA transgenic mice (SFC/10^6) IFN-γ ELISpot, DR2 [4]
21 | GQVVTYALNTFTNLAVQL [NS5 605-622] | 240 ± 76 SFC/10^6 |  |  | 556 ± 27 SFC/10^6
22 | GRTILKENIKYEVAIFVH [E 127-144] |  | 198 ± 21 SFC/10^6 |  | 120 ± 1 SFC/10^6
23 | GVFIHNDVEAWMDRYKYY [NS1 18-35] |  | 52 ± 8 SFC/10^6 |  | 
24 | GWPATEVMTAVGLMFAIV [NS2b 1-18] | 104 ± 18 SFC/10^6 |  |  | 
25 | GWYDWQQVPFCSNHFTEL [NS5 704-721] | 65 ± 27 SFC/10^6 |  |  | 
26 | HFMGKTWEALDTMYVVA [NS4a 15-31] | 187 ± 20 SFC/10^6 |  |  | 278 ± 26 SFC/10^6
27 | HKSGSSIGKAFTTTLKGA [E 398-415] |  | 88 ± 1 SFC/10^6 |  | 168 ± 18 SFC/10^6
28 | IKYEVAIFVHGPTTVESH [E 135-152] |  | 86 ± 13 SFC/10^6 |  | 
29 | IVVGRGEQQINHHWHK [E 384-399] |  | 87 ± 16 SFC/10^6 |  | 
30 | KVLIELEPPFGDSYIVV [E 370-386] | 148 ± 10 SFC/10^6 |  |  | 
31 | LATVSDLSTKAACPTM [E 62-77] | 47 ± 4 SFC/10^6 |  | 465 ± 343 SFC/10^6 | 
32 | LAVGGVLLFLSVNVHA [E 486-501] |  | 244 ± 16 SFC/10^6 | 323 ± 173 SFC/10^6 | 214 ± 27 SFC/10^6
33 | LGALLLWMGINARDRSIA [E 465-482] |  | 330 ± 91 SFC/10^6 | 310 ± 186 SFC/10^6 | 490 ± 64 SFC/10^6
34 | LITAAAVTLWENGASSVW [NS4b 201-218] | 73 ± 8 SFC/10^6 | 99 ± 26 SFC/10^6 |  | 
35 | LVAAVIGWMLGSNTMQRV [prM 136-153] | 327 ± 162 SFC/10^6 | 78 ± 35 SFC/10^6 |  | 235 ± 9 SFC/10^6
36 | LVKTESWILRNPGYALVA [prM 121-138] | 56 ± 6 SFC/10^6 |  |  | 130 ± 23 SFC/10^6
37 | LVQSYGWNIVTMKSGVDV [NS5 115-132] |  | 79 ± 23 SFC/10^6 |  | 
38 | NEDDSNFAHWTEARIML [NS3 480-496] |  | 121 ± 1 SFC/10^6 |  | 
39 | NMPNGLIAQFYQPEREKV [NS3 500-517] |  | 145 ± 49 SFC/10^6 |  | 51 ± 10 SFC/10^6
40 | NTFTNLAVQLVRMMEGEGV [NS5 613-631] | 119 ± 21 SFC/10^6 |  |  | 

Row | Sequence | T cell activation of HLA transgenic mice (SFC/10^6) IFN-γ ELISpot, DR4 [1] | T cell activation of HLA transgenic mice (SFC/10^6) IFN-γ ELISpot, DR3 [2] | T cell activation of HLA transgenic mice (SFC/10^6) IFN-γ ELISpot, A2 [3] | T cell activation of HLA transgenic mice (SFC/10^6) IFN-γ ELISpot, DR2 [4]
41 | NWVPTGRTTWSIHAGGEW [NS5 791-808] | 78 ± 17 SFC/10^6 |  |  | 
42 | PATAWSLYAVTTAVLTPL [NS4b 38-55] |  | 67 ± 13 SFC/10^6 |  | 57 ± 11 SFC/10^6
43 | PFVDVGVSALLLAAGCW [NS4b 87-103] | 59 ± 14 SFC/10^6 |  |  | 
44 | PREHNGNEIVDVMCHATL [NS3 249-266] | 46 ± 16 SFC/10^6 |  | 79 ± 27 SFC/10^6 | 139 ± 25 SFC/10^6
45 | RGWGNGCGLFGKGSI [E 99-113] |  | 79 ± 7 SFC/10^6 |  | 
46 | RLNDTWKLERAVLGEVK [NS1 205-221] | 61 ± 15 SFC/10^6 |  |  | 
47 | RQELRCGSGVFIHNDVEA [NS1 10-27] | 63 ± 8 SFC/10^6 |  |  | 
48 | SGCWYGMEIRPQRHDEK [NS1 327-343] | 78 ± 4 SFC/10^6 |  |  | 
49 | SQIGLIEVLGKMPEHFM [NS4a 1-17] |  | 132 ± 17 SFC/10^6 |  | 
50 | VAAEMAEALRGLPIRY [NS3 228-243] | 46 ± 9 SFC/10^6 |  |  | 
51 | VFHTLWHTTKGAALM [NS3 45-59] |  | 63 ± 10 SFC/10^6 |  | 
52 | VFTSVGKAVHQVFGGAFR [E 434-451] |  | 79 ± 19 SFC/10^6 |  | 116 ± 5 SFC/10^6
53 | VHQVFGGAFRSLFGGMSW [E 442-459] |  | 101 ± 15 SFC/10^6 | 442 ± 313 SFC/10^6 | 117 ± 5 SFC/10^6
54 | VTVNPFVSVATANAKVLI [E 356-373] | 217 ± 51 SFC/10^6 |  |  | 
55 | VVNPSVKTVREAGILITA [NS4b 187-204] | 83 ± 13 SFC/10^6 |  |  | 
56 | VWLAYKVAAAGVSYHDRR [NS3 545-562] |  | 110 ± 9 SFC/10^6 |  | 
57 | WDFGSVGGVFTSVGKAVH [E 426-443] |  | 83 ± 13 SFC/10^6 |  | 
58 | WHTTKGAALMSGEGRL [NS3 50-65] |  | 191 ± 37 SFC/10^6 |  | 
59 | YFHRRDLRLMANAICSAV [NS5 771-788] | 135 ± 47 SFC/10^6 |  |  | 
